In paper PMC7497412 (RSC Advances, 2020) one finds MIC data, which are given here for four compounds.

SMILES strings stand for the structures. In brackets after ≈: the same amount, converted by molar mass.

Experiment in all cases: microbe, parasite or virus in culture
What all share (format): cell-based

One test has as its system M. tb R506/XDR. Conditions: Mycobacterium tuberculosis, read-out: M. tb MIC R506/XDR.
The next test deals with M. tb TF274/XDR. Conditions: Mycobacterium tuberculosis, read-out: M. tb MIC TF274/XDR.
For another test, the system named is M. tb V2475/MDR. Conditions: Mycobacterium tuberculosis, read-out: M. tb MIC V2475/MDR.
The next test has as its system M. tb KZN494/MDR. Conditions: Mycobacterium tuberculosis, read-out: M. tb MIC KZN494/MDR.

For the compound `O=C(NC1CCCCCCC1)c1ccc2ccccc2c1` [13c, N-Cyclooctyl-2-naphthamide], the MIC in the test on M. tb R506/XDR was 3.55 µM (≈ 0.999 µg/mL); with M. tb TF274/XDR, 3.55 µM (≈ 0.999 µg/mL); in the test with M. tb V2475/MDR, 7.11 µM (≈ 2 µg/mL); in the test on M. tb KZN494/MDR, 7.11 µM (≈ 2 µg/mL).
Turning to `O=C(Nc1nc(-c2ccc(Cl)cc2Cl)cs1)C12CC3CC(CC(C3)C1)C2` [18b, N-(4-(2,4-Dichlorophenyl)thiazol-2-yl)adamantane-1-carboxamide], the MIC is 4.91 to 9.82 µM (≈ 2 to 4 µg/mL) in the test on M. tb R506/XDR, 4.91 µM (≈ 2 µg/mL) in the test with M. tb TF274/XDR, 19.6 µM (≈ 8 µg/mL) in the test on M. tb V2475/MDR and 9.82 µM (≈ 4 µg/mL) in the test on M. tb KZN494/MDR.
`O=C(NC12CC3CC(CC(C3)C1)C2)c1ccc2ccccc2c1` [13d, N-(1-Adamantanyl)-2-naphthamide]: the MIC with M. tb R506/XDR is 3.27 µM (≈ 0.999 µg/mL); in the test on M. tb TF274/XDR it was 3.27 µM (≈ 0.999 µg/mL); in the test with M. tb V2475/MDR, 6.55 µM (≈ 2 µg/mL); in the test with M. tb KZN494/MDR, 6.55 to 13.1 µM (≈ 2 to 4 µg/mL).
Consider `O=C(NC12CC3CC(CC(C3)C1)C2)c1cc(=O)c2c(Br)cccc2[nH]1` [8i, N-(1-Adamantanyl)-5-bromo-4-oxo-1,4-dihydroquinoline-2-carboxamide], for which the MIC in the test with M. tb R506/XDR was 4.98 µM (≈ 2 µg/mL); with M. tb TF274/XDR it was 4.98 µM (≈ 2 µg/mL); with M. tb V2475/MDR it was 9.97 µM (≈ 4 µg/mL); in the test on M. tb KZN494/MDR, 9.97 µM (≈ 4 µg/mL).
